Measurements taken from ChEMBL document CHEMBL5223109, “The discovery of BMS-737 as a potent, CYP17 lyase-selective inhibitor for the treatment of castration-resistant prostate cancer” (Bioorg Med Chem Lett, 2022).

Legend:
[1] = target: T1, Steroid 17-alpha-hydroxylase/17,20 lyase (Homo sapiens, UniProt P05093); assay: Inhibition of human CYP17A1; assay type: ADME
T1 sequence (P05093 whole entry): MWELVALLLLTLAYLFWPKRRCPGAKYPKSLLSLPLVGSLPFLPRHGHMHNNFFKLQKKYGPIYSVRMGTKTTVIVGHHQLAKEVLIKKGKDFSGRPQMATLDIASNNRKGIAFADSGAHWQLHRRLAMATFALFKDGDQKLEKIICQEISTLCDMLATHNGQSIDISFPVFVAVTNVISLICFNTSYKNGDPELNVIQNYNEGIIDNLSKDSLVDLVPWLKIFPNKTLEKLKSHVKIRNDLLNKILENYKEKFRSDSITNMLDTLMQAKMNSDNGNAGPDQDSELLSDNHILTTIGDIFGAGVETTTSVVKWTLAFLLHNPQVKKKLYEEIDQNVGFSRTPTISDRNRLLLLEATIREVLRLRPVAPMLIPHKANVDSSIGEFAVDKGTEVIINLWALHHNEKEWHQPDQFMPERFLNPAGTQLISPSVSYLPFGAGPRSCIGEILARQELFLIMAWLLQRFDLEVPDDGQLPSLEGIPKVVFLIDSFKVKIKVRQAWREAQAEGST

Cytochrome P450 1A2 = target: T2, Cytochrome P450 1A2 (Homo sapiens, UniProt P05177); assay: Inhibition of CYP1A2 (unknown origin); assay type: ADME
T2 sequence (P05177 whole entry): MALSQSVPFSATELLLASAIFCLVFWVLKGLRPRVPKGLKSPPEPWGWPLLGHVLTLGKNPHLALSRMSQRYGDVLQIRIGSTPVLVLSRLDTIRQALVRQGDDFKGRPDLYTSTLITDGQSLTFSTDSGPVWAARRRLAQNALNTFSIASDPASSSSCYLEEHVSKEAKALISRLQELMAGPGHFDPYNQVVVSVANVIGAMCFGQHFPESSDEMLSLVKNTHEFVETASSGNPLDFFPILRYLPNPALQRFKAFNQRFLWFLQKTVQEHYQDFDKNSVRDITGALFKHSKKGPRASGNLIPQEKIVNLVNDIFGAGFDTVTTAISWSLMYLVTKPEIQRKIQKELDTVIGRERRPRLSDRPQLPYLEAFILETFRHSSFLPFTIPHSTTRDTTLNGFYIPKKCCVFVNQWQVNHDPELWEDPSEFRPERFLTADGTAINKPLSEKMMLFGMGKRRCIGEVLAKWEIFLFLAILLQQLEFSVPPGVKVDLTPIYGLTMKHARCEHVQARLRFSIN

[2] = target: T3, Steroid 17-alpha-hydroxylase/17,20 lyase (Macaca fascicularis, UniProt Q2XVA1); assay: Inhibition of cynomolgus monkey CYP17A1; assay type: ADME
T3 sequence (Q2XVA1 whole entry): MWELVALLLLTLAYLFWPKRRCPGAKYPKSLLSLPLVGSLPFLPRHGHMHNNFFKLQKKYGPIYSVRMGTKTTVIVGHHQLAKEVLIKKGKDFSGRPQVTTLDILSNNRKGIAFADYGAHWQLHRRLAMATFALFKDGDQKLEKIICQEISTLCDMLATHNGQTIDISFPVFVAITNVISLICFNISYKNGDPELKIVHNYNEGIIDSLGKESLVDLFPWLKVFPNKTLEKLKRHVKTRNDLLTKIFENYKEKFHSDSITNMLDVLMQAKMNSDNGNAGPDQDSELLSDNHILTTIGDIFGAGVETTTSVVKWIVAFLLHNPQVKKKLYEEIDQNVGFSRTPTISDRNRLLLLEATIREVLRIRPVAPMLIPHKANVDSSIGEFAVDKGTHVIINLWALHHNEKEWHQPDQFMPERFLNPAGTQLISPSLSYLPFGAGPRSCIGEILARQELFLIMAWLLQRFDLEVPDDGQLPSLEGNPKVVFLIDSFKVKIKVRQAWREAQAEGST

[3] = target: T3, Steroid 17-alpha-hydroxylase/17,20 lyase; assay: Inhibition of cynomolgus monkey CYP17A1 hydroxylase activity; assay type: ADME
[4] = target: T1, Steroid 17-alpha-hydroxylase/17,20 lyase; assay: Inhibition of human adrenal gland CYP17A1; assay type: ADME, tissue-based
[5] = target: T3, Steroid 17-alpha-hydroxylase/17,20 lyase; assay: Inhibition of cynomolgus monkey adrenal gland CYP17A1; assay type: ADME, tissue-based
[6] = Metabolic stability in human liver microsome assessed as half-life; assay type: ADME; details: liver microsomes
[7] = Metabolic stability in rat liver microsome assessed as half-life; assay type: ADME; details: liver microsomes
[8] = Metabolic stability in dog liver microsome assessed as half-life; assay type: ADME, Canis lupus familiaris; details: liver microsomes
[9] = Permeability across basolateral to apical side in human Caco-2 cells; assay type: ADME, cell-based; details: read-out: permeability
[10] = target: T4, Nuclear receptor subfamily 1 group I member 2 (Homo sapiens, UniProt O75469); assay: Inhibition of PXR (unknown origin)
T4 sequence (O75469 whole entry): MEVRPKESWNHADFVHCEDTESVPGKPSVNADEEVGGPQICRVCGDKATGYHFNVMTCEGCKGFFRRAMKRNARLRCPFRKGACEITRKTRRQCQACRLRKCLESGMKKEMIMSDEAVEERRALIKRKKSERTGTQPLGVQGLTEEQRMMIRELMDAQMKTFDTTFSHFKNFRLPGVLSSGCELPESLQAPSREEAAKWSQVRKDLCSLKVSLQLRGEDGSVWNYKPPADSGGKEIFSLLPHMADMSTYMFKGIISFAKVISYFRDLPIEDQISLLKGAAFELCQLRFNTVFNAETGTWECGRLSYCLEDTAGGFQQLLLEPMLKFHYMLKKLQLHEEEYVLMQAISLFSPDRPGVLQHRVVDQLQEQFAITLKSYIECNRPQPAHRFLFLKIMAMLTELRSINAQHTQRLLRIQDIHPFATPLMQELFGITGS

Cytochrome P450 2C19 = Cytochrome P450 2C19 (Homo sapiens, UniProt P33261); assay: Inhibition of recombinant human CYP2C19; assay type: ADME
Cytochrome P450 2C19, sequence (P33261 whole entry): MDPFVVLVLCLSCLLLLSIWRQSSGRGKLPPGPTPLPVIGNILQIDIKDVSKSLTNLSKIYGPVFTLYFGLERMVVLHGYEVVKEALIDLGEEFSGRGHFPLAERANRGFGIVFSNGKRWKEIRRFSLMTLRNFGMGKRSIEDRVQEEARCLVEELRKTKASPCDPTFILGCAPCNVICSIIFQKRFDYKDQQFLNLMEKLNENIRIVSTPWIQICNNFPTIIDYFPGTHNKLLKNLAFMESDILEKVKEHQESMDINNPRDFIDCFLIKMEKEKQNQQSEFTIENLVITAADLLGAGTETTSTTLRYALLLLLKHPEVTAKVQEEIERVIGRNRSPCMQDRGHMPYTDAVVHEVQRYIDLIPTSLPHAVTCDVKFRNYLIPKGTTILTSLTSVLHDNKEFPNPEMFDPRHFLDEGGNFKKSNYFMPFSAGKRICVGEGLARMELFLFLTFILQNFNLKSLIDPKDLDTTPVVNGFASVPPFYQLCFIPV

Cytochrome P450 2C9 = Cytochrome P450 2C9 (Homo sapiens, UniProt P11712); assay: Inhibition of recombinant human CYP2C9; assay type: ADME
Cytochrome P450 2C9, sequence (P11712 whole entry): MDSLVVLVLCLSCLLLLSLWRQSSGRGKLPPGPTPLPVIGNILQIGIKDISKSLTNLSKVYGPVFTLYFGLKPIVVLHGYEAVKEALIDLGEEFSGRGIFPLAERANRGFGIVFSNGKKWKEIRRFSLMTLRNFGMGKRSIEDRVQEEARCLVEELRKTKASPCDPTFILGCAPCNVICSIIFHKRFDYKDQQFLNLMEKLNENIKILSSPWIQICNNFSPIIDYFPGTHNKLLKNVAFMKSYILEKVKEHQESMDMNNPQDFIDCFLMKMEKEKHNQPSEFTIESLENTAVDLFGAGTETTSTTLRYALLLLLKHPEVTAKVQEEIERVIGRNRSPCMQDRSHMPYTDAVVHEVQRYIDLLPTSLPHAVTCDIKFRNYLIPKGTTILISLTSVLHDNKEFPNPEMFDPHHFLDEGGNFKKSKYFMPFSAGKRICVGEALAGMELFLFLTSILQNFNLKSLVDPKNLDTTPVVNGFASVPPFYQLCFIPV

[11] = Cmax in cynomolgus monkey at 1 mg/kg, po; assay type: ADME, organism-based, Macaca fascicularis; set-up: dose 1 mg/kg, route po; details: in vivo
[12] = Tmax in cynomolgus monkey at 1 mg/kg, po; assay type: ADME, organism-based, Macaca fascicularis; details: in vivo
[13] = AUC in cynomolgus monkey at 1 mg/kg, po; assay type: ADME, organism-based, Macaca fascicularis; set-up: dose 1 mg/kg, route po; details: in vivo
[14] = Volume of distribution at steady state in cynomolgus monkey at 1 mg/kg, iv; assay type: ADME, organism-based, Macaca fascicularis; details: in vivo, read-out: Vdss
Cytochrome P450 3A4 = Cytochrome P450 3A4 (Homo sapiens, UniProt P08684); assay: Induction of recombinant human CYP3A4; assay type: ADME; details: recombinant enzyme
Cytochrome P450 3A4, sequence (P08684 whole entry): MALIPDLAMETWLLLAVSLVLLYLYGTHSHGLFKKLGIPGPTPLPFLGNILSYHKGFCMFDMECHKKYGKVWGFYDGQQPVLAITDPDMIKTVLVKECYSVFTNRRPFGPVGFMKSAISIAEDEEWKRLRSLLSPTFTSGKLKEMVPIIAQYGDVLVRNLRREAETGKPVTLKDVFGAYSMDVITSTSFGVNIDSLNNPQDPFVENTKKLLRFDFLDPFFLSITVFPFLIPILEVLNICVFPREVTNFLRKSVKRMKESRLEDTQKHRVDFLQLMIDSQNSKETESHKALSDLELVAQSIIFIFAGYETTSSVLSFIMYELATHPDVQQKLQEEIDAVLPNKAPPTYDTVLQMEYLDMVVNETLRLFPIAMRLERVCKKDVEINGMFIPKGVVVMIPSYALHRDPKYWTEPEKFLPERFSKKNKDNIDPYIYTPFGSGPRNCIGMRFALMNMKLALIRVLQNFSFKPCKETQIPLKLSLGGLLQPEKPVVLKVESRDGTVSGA

[15] = target: T3, Steroid 17-alpha-hydroxylase/17,20 lyase; assay: Selectivity ratio of IC50 for inhibition of cynomolgus monkey CYP17A1 hydroxylase activity to IC50 for inhibition of cynomolgus monkey CYP17A1 lyase activity; assay type: ADME
[16] = target: T3, Steroid 17-alpha-hydroxylase/17,20 lyase; assay: In vivo inhibition of CYP17A1 in cynomolgus monkey assessed as increase in hydroxyprogesterone level in blood at 1 mg/kg, po measured at 4 hrs; assay type: functional, organism-based

Q: For `Nc1ncncc1-c1ccnc2c1cnn2-c1ccc(F)cc1`, which IC50 [1] is on record?
A: The IC50 was 16 nM.

Q: What about the IC50 (Cytochrome P450 1A2) of the same molecule?
A: Its IC50 is > 40000 nM.

Q: What about the IC50 [2] of the same molecule?
A: Its IC50 is 2 nM.

Q: And the IC50 [3]?
A: Its IC50 is 30 nM.

Q: And the IC50 [4]?
A: Its IC50 is 30 nM.

Q: And the IC50 [5]?
A: The IC50 was 2 nM.

Q: What about the half-life [6] of the same molecule?
A: Its half-life is > 2 h.

Q: What about the half-life [7] of the same molecule?
A: The half-life was 1.2 h.

Q: What about the half-life [8] of the same molecule?
A: Its half-life is 0.767 h.

Q: What about the Papp B→A [9] of the same molecule?
A: The Papp B→A was 21.2 ×10⁻⁶ cm/s.

Q: And the IC50 [10]?
A: Its IC50 is > 50000 nM.

Q: What about the IC50 (Cytochrome P450 2C19) of the same molecule?
A: The IC50 was > 40000 nM.

Q: What about the IC50 (Cytochrome P450 2C9) of the same molecule?
A: Its IC50 is > 40000 nM.

Q: What about the Cmax [11] of the same molecule?
A: The Cmax was 1550 nM.

Q: What about the Tmax [12] of the same molecule?
A: Its Tmax is 1 h.

Q: What about the AUC [13] of the same molecule?
A: Its AUC is 26 µM·h.

Q: What about the Vd [14] of the same molecule?
A: Its Vd is 3.5 L/kg.

Q: And the Activity (Cytochrome P450 3A4)?
A: Its Activity is “Not Active”.

Q: What about the “Ratio IC50” value [15] of the same molecule?
A: The value was 5.

Q: And the Activity [16]?
A: Its Activity is 7.7 ng/dL.
